For data set [1], the system named is mice. As to the kind of experiment: Acute toxicity in mice. The format is in vivo. To be noted: intravenous, subdermal, intraperitoneal or oral, 4000 mg/kg.
For data set [2], the system named is Candida albicans. In words: Therapeutic effect on experimental candidosis in mice. As to conditions: intravenously infected, twice administration, total of dosages. Type of data set: in vivo.
A short description of data set [3]: Solubility. Type of data set: physicochemical. The source says: The physico-chemical properties of TAN-950A (monosodium salt) obtained in Example 2 described later are as follows.
In data set [4] the test system is Cryptococcus neoformans IFO 0410. In words: Paper disc agar diffusion, growth-inhibition zone. The format is cell-based. As to conditions: IFO0410, 48 h, monosodium salt, disc 1000 μg/ml, 28 °C, read-out: Diameter of growth-inhibition zone. As to the method:
(§1) Paper discs (8 mm. in diameter, manufactured by Toyo Seisakusho) immersed in an aqueous solution of the antibiotic TAN-950A (monosodium salt) (1000 μg/ml) were put on agar plates seeded with the test organism, and these agar plates were incubated at a given […] for a given period of time. In the Table, "0" means no formation of the growth-inhibition zone. Culture media employed are as follows:
(§2) B: Yeast nitrogen base agar medium (Difco Laboratories, USA) supplemented with L-asparagine (0.17%)
(§3) D: Yeast nitrogen base agar medium (Difco Laboratories, USA) supplemented with glucose (2%) and agar (1.5%)
(In general: In agar diffusion tests the substance spreads into inoculated agar from a disc or well.)

The subject of data set [5] is Filobasidium uniguttulatum IFO 0699. In words: Paper disc agar diffusion, growth-inhibition zone. The format is cell-based. As to conditions: IFO0699, 48 h, monosodium salt, disc 1000 μg/ml, 28 °C, read-out: Diameter of growth-inhibition zone. As to the method:
as §1, §2, §3

For data set [6], the system named is Aspergillus fumigatus IFO 6344. As to the kind of experiment: Paper disc agar diffusion, growth-inhibition zone. Type of data set: cell-based. As to conditions: IFO6344, 48 h, monosodium salt, disc 1000 μg/ml, 28 °C, read-out: Diameter of growth-inhibition zone. The procedure: as §1, §2, §3
Data set [7] deals with Candida albicans IFO 0583. As to the kind of experiment: Paper disc agar diffusion, growth-inhibition zone. The format is cell-based. As to conditions: IFO0583, 48 h, monosodium salt, disc 1000 μg/ml, 28 °C, read-out: Diameter of growth-inhibition zone. The procedure:
as §1, §2, §3

Data set [8] relates to Candida utilis IFO 0619. In words: Paper disc agar diffusion, growth-inhibition zone. Type of data set: cell-based. As to conditions: monosodium salt, disc 1000 μg/ml, 28 °C, 48 h, 0 = no zone. The procedure: as §1, §2, §3
The subject of data set [9] is Saccharomyces cerevisiae IFO 0209. As to the kind of experiment: Paper disc agar diffusion, growth-inhibition zone. Type of data set: cell-based. To be noted: IFO0209, 48 h, monosodium salt, disc 1000 μg/ml, 28 °C, read-out: Diameter of growth-inhibition zone. The procedure: as §1, §2, §3
Data set [10] has as its system Torulopsis glabrata IFO 1085. In words: Paper disc agar diffusion, growth-inhibition zone. As to conditions: Nakaseomyces glabratus, IFO1085, 48 h, monosodium salt, disc 1000 μg/ml, 28 °C, read-out: Diameter of growth-inhibition zone. Type of data set: cell-based. As to the method:
as §1, §2, §3

Data set [11] relates to Penicillium chrysogenum IFO 4626. As to the kind of experiment: Paper disc agar diffusion, growth-inhibition zone. The format is cell-based. To be noted: IFO4626, monosodium salt, disc 1000 μg/ml, 28 °C, read-out: Diameter of growth-inhibition zone. As to the method: as §1, §2, §3
The test system of data set [12] is Escherichia coli NIH JC-2. As to the kind of experiment: Paper disc agar diffusion, growth-inhibition zone. To be noted: NIHJC2, monosodium salt, disc 1000 μg/ml, medium C, 37 °C, 20 h, 0 = no zone, read-out: Diameter of growth-inhibition zone. The format is cell-based. The procedure:
as §1
(§4) C: Trypticase soy agar (Becton Dickinson Co., USA)

The subject of data set [13] is Bacillus subtilis PCI 219. As to the kind of experiment: Paper disc agar diffusion, growth-inhibition zone. The format is cell-based. As to conditions: PCI219, monosodium salt, disc 1000 μg/ml, medium C, 37 °C, 20 h, 0 = no zone, read-out: Diameter of growth-inhibition zone. The procedure:
as §1, §4

In data set [14] the test system is Candida albicans. In words: TLC-bioautography using Candida albicans. As to conditions: aqueous layer of culture filtrate; cellulose f, acetonitrile:water (3:1). The format is cell-based.
Data set [15] concerns Trichophyton rubrum IFO 5467. As to the kind of experiment: Paper disc agar diffusion, growth-inhibition zone. The format is cell-based. As to conditions: IFO5467, monosodium salt, disc 1000 μg/ml, 28 °C, read-out: Diameter of growth-inhibition zone. The procedure:
as §1
A: Sabouraud's dextrose agar medium
as §3

The test system of data set [16] is Microsporum gypseum IFO 6075. In words: Paper disc agar diffusion, growth-inhibition zone. The format is cell-based. As to conditions: Nannizzia gypsea, IFO6075; monosodium salt, disc 1000 μg/ml; medium D, 28 °C, 72 h; read-out: Diameter of growth-inhibition zone. The procedure: as §1, §3
For data set [17], the system named is Candida tropicalis IFO0006. In words: Paper disc agar diffusion, growth-inhibition zone. The format is cell-based. As to conditions: monosodium salt, disc 1000 μg/ml, medium D, 28 °C, 48 h, read-out: Diameter of growth-inhibition zone. As to the method:
as §1, §3

Data set [18] relates to Candida parapsilosis IFO1396. As to the kind of experiment: Paper disc agar diffusion, growth-inhibition zone. The format is cell-based. To be noted: Lodderomyces parapsilosis, monosodium salt, disc 1000 μg/ml, medium D, 28 °C, 48 h, read-out: Diameter of growth-inhibition zone. As to the method:
as §1, §3

Data set [19] concerns Candida parakrusei IFO0640. As to the kind of experiment: Paper disc agar diffusion, growth-inhibition zone. Type of data set: cell-based. To be noted: monosodium salt, disc 1000 μg/ml, medium D, 28 °C, 48 h, read-out: Diameter of growth-inhibition zone. As to the method: as §1, §3

In general, ED50 refers to the midpoint of the dose-response relation. Low readings indicate an effect at a small dose, high ones a need for a large dose. What is called zone of inhibition is the size of the clear area around the sample on an inoculated plate.

Structures are written as SMILES. Counter-ions that a name gives are not always drawn. Like-named read-outs stand apart in the source and are kept apart here.

Take `N[C@@H](Cc1c[nH]oc1=O)C(=O)O` [TAN-950A monosodium salt]: in data set [1], the acute toxicity result was “No acute toxicity”. The median effective dose (ED50) in data set [2] (oral) is 105 mg/kg; in data set [2] (sc, subcutaneous), 40 mg/kg. Besides, the Solubility entry in data set [3] (acetone) was “Sparingly soluble”; in [3] (chloroform) it was “Sparingly soluble”; in [3] (dimethyl sulfoxide) it was “Soluble”; in data set [3] (ethyl acetate), “Sparingly soluble”; in data set [3] (methanol), “Soluble”; in data set [3] (water), “Soluble”.
Turning to `N[C@@H](Cc1c[nH]oc1=O)C(=O)O` [TAN-950A], the zone of inhibition at 1000 µg/mL was 0 mm in data set [4] (medium B, 0 = no zone); 27 mm in [4] (medium D); 23 mm in data set [5] (medium B); 35 mm in [5] (medium D); 0 mm in data set [6] (medium B, 0 = no zone); 57 mm in [6] (medium D). The zone of inhibition at 1000 µg/mL in data set [7] (medium B) was determined as 21 mm; in data set [7] (medium D), 34 mm; in [8] (Williopsis jadinii, IFO0619, medium B, read-out: Diameter of growth-inhibition zone), 0 mm; in data set [9] (medium B), 24 mm; in data set [9] (medium D), 25 mm; in data set [10] (medium B) it was 23 mm. Besides, the zone of inhibition at 1000 µg/mL in data set [10] (medium D) worked out at 26 mm; in data set [11] (medium B, 66 h, 0 = no zone), 0 mm; in data set [11] (medium D, 72 h) it was 35 mm; in data set [12] it was 0 mm; in data set [13] it was 0 mm; in [15] (medium A, 48 h, 0 = no zone), 0 mm. In addition, the zone of inhibition at 1000 µg/mL is 47 mm in [15] (medium D, 72 h); 41 mm in [16]; 25 mm in data set [17]; 40 mm in data set [18]; 43 mm in data set [19]. For the same compound, in data set [8] (medium D), the “Diameter of growth-inhibition zone” value is reported as 0 mm. Also, the “inhibition zone in TLC-bioautography” value in data set [14] is “inhibition zones”.
